# Laboratory results reported in ChEMBL document CHEMBL3880403, “Diaryl ethers as opioid receptor antagonist” (2006).
# Experiments:
# Rattus norvegicus [1] = assay: Ex vivo inhibition of [3H]-Diprenophine binding to mu opioid receptor in striatum/nucleus accumbens isolated from rat treated with compound at 7 mg/kg, po for 6 hrs measured after 30 mins post [3H]-Diprenophine addition to tissue relative to control; assay type: functional
# Rattus norvegicus [2] = assay: Ex vivo inhibition of [3H]-Diprenophine binding to delta opioid receptor in striatum/nucleus accumbens isolated from rat treated with compound at 7 mg/kg, po for 6 hrs measured after 30 mins post [3H]-Diprenophine addition to tissue relative to control; assay type: functional
# Rattus norvegicus [3] = assay: Ex vivo inhibition of [3H]-Diprenophine binding to kappa opioid receptor in striatum/nucleus accumbens isolated from rat treated with compound at 7 mg/kg, po for 6 hrs measured after 30 mins post [3H]-Diprenophine addition to tissue relative to control; assay type: functional
# Rattus norvegicus [4] = assay: In vivo inhibition of opioid receptor in obese rat assessed as compound dose causing effective decrease in feeding behavior; assay type: functional
# Rattus norvegicus [5] = assay: Antiobesity activity in po dosed diet-induced obese rat assessed as inhibition of food consumption measured up to 24 hrs by indirect calorimetry assay; assay type: functional; details: read-out: MED
# Rattus norvegicus [6] = assay: Antiobesity activity in diet-induced obese rat assessed as energy balance at 3 mg/kg, po measured up to 24 hrs by indirect calorimetry assay; assay type: functional
# [7] = target: Mu-type opioid receptor (Homo sapiens) (UniProt P35372); assay: Antagonist activity at mu opioid receptor (unknown origin) expressed in membranes assessed as inhibition of DAMGO1-induced GTP-gamma-[35S] binding after 4 hrs by micro beta scintillation counting analysis
# [8] = target: Kappa-type opioid receptor (Homo sapiens) (UniProt P41145); assay: Antagonist activity at kappa opioid receptor (unknown origin) expressed in membranes assessed as inhibition of U69593-induced GTP-gamma-[35S] binding after 4 hrs by micro beta scintillation counting analysis
# [9] = target: Delta-type opioid receptor (Homo sapiens) (UniProt P41143); assay: Antagonist activity at delta opioid receptor (unknown origin) expressed in membranes assessed as inhibition of DPDPE-induced GTP-gamma-[35S] binding after 4 hrs by micro beta scintillation counting analysis
# Sequence of Delta-type opioid receptor (Homo sapiens) (P41143 whole entry): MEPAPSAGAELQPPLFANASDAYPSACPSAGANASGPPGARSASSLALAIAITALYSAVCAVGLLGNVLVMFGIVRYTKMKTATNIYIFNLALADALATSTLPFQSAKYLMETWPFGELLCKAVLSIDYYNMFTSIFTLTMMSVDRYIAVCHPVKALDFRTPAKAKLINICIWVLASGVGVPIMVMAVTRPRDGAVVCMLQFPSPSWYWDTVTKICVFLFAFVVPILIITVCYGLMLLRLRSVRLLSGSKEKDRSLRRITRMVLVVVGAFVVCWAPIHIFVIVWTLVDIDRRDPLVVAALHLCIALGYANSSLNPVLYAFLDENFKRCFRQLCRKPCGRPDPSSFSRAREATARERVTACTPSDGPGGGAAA
# Sequence of Kappa-type opioid receptor (Homo sapiens) (P41145 whole entry): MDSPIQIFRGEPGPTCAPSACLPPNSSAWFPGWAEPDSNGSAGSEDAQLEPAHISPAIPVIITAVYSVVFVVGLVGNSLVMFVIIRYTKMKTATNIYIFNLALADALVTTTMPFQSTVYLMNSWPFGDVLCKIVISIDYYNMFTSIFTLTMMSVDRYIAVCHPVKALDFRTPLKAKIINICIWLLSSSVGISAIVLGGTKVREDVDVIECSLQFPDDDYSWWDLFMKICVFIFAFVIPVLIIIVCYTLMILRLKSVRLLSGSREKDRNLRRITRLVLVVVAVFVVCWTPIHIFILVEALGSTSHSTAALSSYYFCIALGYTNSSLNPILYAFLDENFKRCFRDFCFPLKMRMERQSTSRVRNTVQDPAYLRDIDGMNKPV
# Sequence of Mu-type opioid receptor (Homo sapiens) (P35372 whole entry): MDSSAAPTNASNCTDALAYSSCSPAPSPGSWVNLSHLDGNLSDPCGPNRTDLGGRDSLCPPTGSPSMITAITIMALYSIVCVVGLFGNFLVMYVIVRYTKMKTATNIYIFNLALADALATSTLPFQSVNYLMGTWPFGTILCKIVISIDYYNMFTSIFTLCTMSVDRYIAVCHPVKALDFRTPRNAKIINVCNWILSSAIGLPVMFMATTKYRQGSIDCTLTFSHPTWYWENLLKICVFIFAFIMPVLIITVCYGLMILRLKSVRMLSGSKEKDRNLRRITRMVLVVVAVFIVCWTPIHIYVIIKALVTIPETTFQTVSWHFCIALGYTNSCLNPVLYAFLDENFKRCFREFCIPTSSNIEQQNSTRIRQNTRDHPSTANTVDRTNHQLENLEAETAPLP
SMILES,inhibition in vivo at 7 mg/kg (Rattus norvegicus [1]) [%],inhibition in vivo at 7 mg/kg (Rattus norvegicus [2]) [%],inhibition in vivo at 7 mg/kg (Rattus norvegicus [3]) [%],ED (Rattus norvegicus [4]),minimal effective dose (Rattus norvegicus [5]) [mg/kg],Activity (Rattus norvegicus [6]) [kcal/kg/day],Kb [7] [pM],Kb [8] [pM],Kb [9] [pM]
CCCCNCc1ccc(Oc2ccc(C(N)=O)cn2)c(C)c1,38,38,38,,,,,,
Cc1cc(CNCCC(C)C)ccc1Oc1ccc(C(N)=O)cn1,55,55,55,0.3 mg/kg,0.3,-68,,,
CCCCCNCc1ccc(Oc2ccc(C(N)=O)nc2)c(F)c1,55,55,55,,,,,,
Cc1ccccc1CNCCc1ccc(Oc2ccc(C(N)=O)cn2)c(Cl)c1,,,,,,,281,3380,8900
Cc1cc(CNCCC(C)C)ccc1Oc1ccc(C(N)=O)cc1F,58,58,58,,,,,,
NC(=O)c1ccc(Oc2ccc(CNCCC3CCCC3)cc2)nc1,> 60,> 60,> 60,<=3 ug/kg,≤ 3,-39,,,
NC(=O)c1ccc(Oc2ccc(CCNCc3cccc(F)c3)cc2Cl)nc1,,,,,,,410,4500,5780
NC(=O)c1ccc(Oc2ccc(CNCCc3cccs3)cc2)nc1,> 40,> 40,> 40,<=3 ug/kg,≤ 3,-19,68,355,708
CC(C)(C)CCNCc1ccc(Oc2ccc(C(N)=O)cn2)cc1,62,62,62,<=3 ug/kg,≤ 3,-56,,,
CCCCCNCc1ccc(Oc2ccc(C(N)=O)cc2)cc1,,,,3 mg/kg,3,-65,,,
CC(C)CCNCc1ccc(Oc2ccc(C(N)=O)cn2)cc1,> 40,> 40,> 40,0.3 mg/kg,0.3,-35,200,400,4400
CC(C)CCNCc1ccc(Oc2ccc(C(N)=O)cn2)c(Cl)c1,77,77,77,,,,,,
NC(=O)c1ccc(Oc2ccc(CNCCc3ccc(F)cc3)cc2)cc1,50,50,50,,,,,,
CC(C)CCNCc1ccc(Oc2ccc(C(N)=O)cn2)c(F)c1,> 65,> 65,> 65,0.3 mg/kg,0.3,-81,,,
O=C1CC[C@@]2(O)[C@H]3Cc4ccc(O)c5c4[C@@]2(CCN3CC2CC2)[C@H]1O5 [NALTREXONE],< 40,< 40,< 40,,> 10,,,,
NC(=O)c1ccc(Oc2ccc(CNCCc3cccc(F)c3)cc2)nc1,40,40,40,,,,72,894,677
CC(C)(C)CCNCc1ccc(Oc2ccc(C(N)=O)cn2)c(Cl)c1,83,83,83,,,,,,
COc1cc(CNCCc2ccccc2F)ccc1Oc1ccc(C(N)=O)cn1,54,54,54,,,,,,
COc1cc(CNCCC(C)(C)C)ccc1Oc1ccc(C(N)=O)cn1,55,55,55,,,,,,
NC(=O)c1ccc(Oc2ccc(CNCCC3CCCCC3)cc2)nc1,79,79,79,,,,,,
NC(=O)c1ccc(Oc2ccc3c(c2)CCCN(CCc2ccccc2)C3)nc1,62,62,62,,,,,,
NC(=O)c1ccc(Oc2ccc(CCNCc3cccc(Cl)c3)cc2Cl)nc1,,,,,,,503,6860,30100
NC(=O)c1ccc(Oc2ccc(CCNCc3ccccc3)cc2Cl)nc1,,,,,,,843,7860,17500
CCCCCNCc1ccc(Oc2ccc(C(N)=O)cn2)c(OC)c1,75,75,75,,,,,,
C[C@H]1CN(CC[C@H](O)C2CCCCC2)CC[C@@]1(C)c1cccc(O)c1,> 40,> 40,> 40,,1,-36,,,
Cc1cc(CNCCC(C)(C)C)ccc1Oc1ccc(C(N)=O)cn1,59,59,59,,,,,,
